The values that follow come from publication PMC12051030, “Identification of inhibitors of the Salmonella FraB deglycase, a drug target” (FEBS Open Bio, 2025).

What is called IC50 is the midpoint of a concentration-inhibition curve.

In data set [1] the target is His6‐FraB (Salmonella FraB deglycase) (Salmonella enterica subsp. enterica serovar Typhimurium, UniProt Q8ZLD0). The experiment in a line: FraB-G6PD coupled assay, IC50 determination. Format: biochemical. How it is done: The substrate for FraB, 6‐P‐F‐Asp, was synthesized as previously described. FraB activity was monitored as described previously, with the following changes. The final reaction (30 μL) consisted of 25 mM HEPES pH 8 (at 20 °C), 5 mM MgCl2, 0.1 mM ethylene glycol tetraacetic acid (EGTA), 0.5 mM NAD^+, 1 mU G6PD from Leuconostoc mesenteroides (#LS003981; Worthington Biochemicals, Lakewood, NJ, USA), 100 nM His6‐FraB, and 0–3 mM 6‐P‐F‐Asp. The reaction mixture without substrate (29 μL) was added to one well of a 384‐well polystyrene white μClear® microplate (#781095; Greiner Bio‐One, Monroe, NC, USA) and incubated at 37 °C for 2 min, prior to the addition of 1 μL substrate to initiate the reaction. NADH generation was monitored using either absorbance (340 nm) or fluorescence (350 nm excitation, 450 nm emission) and with either an INFINITE M1000 PRO (Tecan, Mannedorf, Switzerland) or Synergy H1 (Biotek, Winooski, VT, USA) plate reader. Absorbance/fluorescence was plotted against time and slopes were obtained by linear regression analyses. These slopes were converted into initial velocities by dividing them by either the absorbance extinction coefficient (ε340 = 6,220 M ^−1·cm^−1) or the molar fluorescence determined based on standard curves obtained in different plate readers (23,646 RFUs·μM ^−1, Tecan; 285,108 RFUs·μM ^−1, Biotek; Fig. S2). These initial velocities (v o) in turn were plotted against [6‐P‐F‐Asp] to obtain Michaelis–Menten curves that were fit to the formula v o = (V max × [S])/(K m + [S]) by Kaleidagraph (Version 4.5.3; Synergy Software, Reading, PA, USA). The activity of recombinant FraB (Fig. S3) was similar to that as reported previously.
For determining the IC50 value of each compound, 26 μL of master mix was added to two rows (48 wells) of a 384‐well Greiner plate followed by 3 μL of inhibitor to four wells per concentration (12 concentrations total) using a single‐channel pipette. After mixing with a 12‐channel pipette, the plate was incubated at 20 °C for 20 min. To initiate the reaction, a 12‐channel pipette was used to add and mix 1 μL of 7.5 mM 6‐P‐F‐Asp to all 48 wells. The final reaction (30 μL) consisted of 25 mM HEPES pH 8.0 at 20 °C, 5 mM MgCl2, 0.1 mM EGTA, 0.5 mM NAD^+, 1 mU G6PD, 100 nM His6‐FraB, 0.25 mM 6‐P‐F‐Asp, and varying concentrations of inhibitor (10% v/v DMSO). NADH fluorescence was monitored every 10 s for 10 min total on a SPARK® multi‐mode multiplate reader (Tecan), as described above, and plotted against time. Slopes of the linear range of each curve were converted to initial velocities, as described above, that were then plotted against (inhibitor). Kaleidagraph was used to fit a sigmoidal curve to each plot using the following formula in order to determine the [IC50]: % inhibition = 100/1 + (IC50/[I]), where I is [inhibitor] [48].

The next data set concerns Salmonella tolC mutant. The experiment in a line: Growth assay, Salmonella tolC mutant in wild‐type or fra island mutant background. Format: cell-based. The following applies: early finding; could not be replicated after multiple attempts with stocks from different suppliers (data not shown). The source says:
We sought to examine the possibility that some of the hits in the biochemical HTS were not picked up in the cell‐based assays due to efficient efflux mechanisms in Salmonella. Because TolC is an outer membrane protein channel that is essential for the ability of seven of the 10 inner membrane drug‐efflux transporters to expel structurally diverse molecules, we generated a Salmonella tolC mutant and tested the 121 compounds that we purchased (Sabag‐Daigle, A. & Ahmer, B. M. M., unpublished results). The tests were conducted in parallel using the tolC mutant in a wild‐type or fra island mutant background; the latter lacks the entire fra locus and is incapable of catabolizing F‐Asn and forming 6‐P‐F‐Asp. Thus, any inhibitor specific for FraB (and which was being effluxed in the wild‐type) will inhibit the tolC mutant in a wild‐type but not the fra island mutant background. A caveat is that efflux of compounds may also be achieved via TolC‐independent drug‐efflux pumps.

Another data set deals with FraB (Salmonella enterica subsp. enterica serovar Typhimurium, UniProt Q8ZLD0). The data set can be described thus: Native MS of FraB–inhibitor complexes. Format: binding. The following applies: for binding to FraB by native MS (species observed): IST 50 V, E2I/E2I2 = FraB dimer bound to one or two inhibitor copies; for type of FraB–inhibitor interaction (covalent vs noncovalent): decrease in E2I and E2I2 with increasing IST voltage. How it is done:
For MS analysis, FraB was buffer exchanged into 200 mM ammonium acetate (AmAc) (Sigma‐Aldrich) or 66.7 mM ethylenediaminediacetic acid (EDDA) (Sigma‐Aldrich) using micro Bio‐spin P6 spin columns (Bio‐Rad); AmAc and EDDA concentrations were chosen to ensure the same ionic strength. The pH was adjusted to 7.5 by adding ammonium hydroxide solution (Sigma‐Aldrich). 6‐P‐F‐Asp was diluted with water, while three different inhibitors [3470:A09, 3469:F02, and 3469:N17, all purchased from either ChemDiv (San Diego, CA, USA) or Ambinter (Orléans, France)] were diluted in DMSO. The final concentration of DMSO used in the native MS experiments was 4.8% (v/v) or 1% (v/v) for the compounds obtained from ChemDiv or Ambinter, respectively.
For the characterization of FraB–inhibitor complexes, the protein was diluted into 200 mM AmAc and then mixed with inhibitors to final concentrations of 3 μM FraB and 120 μM inhibitor. After adding the inhibitors, the FraB–inhibitor complex was incubated for 20 min at 20 °C before injecting into the mass spectrometry (MS). For the characterization of FraB–inhibitor–substrate complexes, FraB was diluted into 66.7 mM EDDA, mixed with inhibitors, incubated at 20 °C for 20 min, and subsequently mixed with 6‐P‐F‐Asp. The final concentrations were as follows: 3 μM FraB (monomer concentration), 120 μM inhibitor, and 600 μM 6‐P‐F‐Asp.
Native MS experiments were performed on Thermo Q Exactive ultra high mass range (UHMR) Orbitrap. Samples were introduced into the MS instrument by nano‐electrospray ionization, which using glass capillary tips pulled in‐house using a P‐97 micropipette puller (Sutter Instruments, Novato, CA, USA). Each sample (3–5 μL) was loaded into the tips, and the electrospray voltage was set between 0.6 and 1.0 kV. The mass spectrometer was operated in positive mode using the following tuning settings: Capillary temperature: 200 °C detector optimization: low m/z; ion transfer target: high m/z; in‐source trapping (IST): 50 V, except when applying higher IST to disrupt the FraB–inhibitor interactions; HCD trap gas flow: 5; Resolution: 12 500. Mass spectra were collected after the spray stabilized (typically < 5 min) and then examined using XCalibur 4.1 (Thermo Scientific), and deconvolved using UniDec software.

Setting [2] is: 0.25 mM 6‐P‐F‐Asp, mean and standard error from two measurements, read-out: IC50.
[3] abbreviates: Trial 1, 0.25 mM 6-P-F-Asp, unit in Fig. S10, read-out: IC50 (curve fit of IC50 plots, Fig. S10).
The mark [4] stands for this setting: Trial 2, 0.25 mM 6-P-F-Asp, unit in Fig. S10, read-out: IC50 (curve fit of IC50 plots, Fig. S10).

Several values for one entry are separate records, joined by “and”; a condition that tells them apart may be missing. Identical values can stand only once. Like-named read-outs stand apart in the source and are kept apart here.

FraB, sequence (Q8ZLD0 entry or part of it): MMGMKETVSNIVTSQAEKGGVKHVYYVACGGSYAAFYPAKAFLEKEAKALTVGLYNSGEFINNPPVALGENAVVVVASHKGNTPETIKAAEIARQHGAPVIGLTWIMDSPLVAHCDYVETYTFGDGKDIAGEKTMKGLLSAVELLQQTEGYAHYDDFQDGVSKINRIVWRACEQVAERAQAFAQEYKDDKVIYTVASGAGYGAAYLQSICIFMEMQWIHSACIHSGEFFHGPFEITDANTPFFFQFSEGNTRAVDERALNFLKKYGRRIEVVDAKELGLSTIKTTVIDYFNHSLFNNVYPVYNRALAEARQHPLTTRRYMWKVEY
His6‐FraB (Salmonella FraB deglycase), sequence (Q8ZLD0 entry or part of it): as above

As to `Cc1cccc(Cl)c1-n1sc(=O)n(CC2CC2)c1=O` [1524:E12, 2‐(2‐chloro‐6‐methylphenyl)‐4‐(cyclopropylmethyl)‐1,2,4‐thiadiazolidine‐3,5‐dione], the IC50 in data set [1] (setting [2]) was 4.3 µM; in data set [1] (setting [3]), 4.28 µM and 4.3 µM; in data set [1] (setting [4]), 4.29 µM and 4.3 µM.
On to `O=c1sn(-c2ccccc2C(F)(F)F)c(=O)n1CC1CC1` [1524:G12, 4‐(cyclopropylmethyl)‐2‐[2‐(trifluoromethyl)phenyl]‐1,2,4‐thiadiazolidine‐3,5‐dione], for which the IC50 in data set [1] (setting [2]) was 2.8 ± 0.4 µM; in data set [1] (setting [3]) it was 3.24 µM and 3.2 µM; in data set [1] (setting [4]) it was 2.39 µM and 2.4 µM.
As for `O=c1[nH][nH]c(=S)n1Cc1ccccc1` [1533:K12, 4‐benzyl‐5‐sulfanylidene‐1,2,4‐triazolidin‐3‐one], the IC50 in data set [1] (setting [2]) worked out at 27.6 ± 3.9 µM; in data set [1] (setting [3]), 31.5 µM; in data set [1] (setting [4]) it was 23.7 µM.
For `c1ccc(-c2nnc3sc(C4COc5ccccc5O4)nn23)nc1` (stereo not shown) [3469:F02, 6‐(2,3‐dihydro‐1,4‐benzodioxin‐3‐yl)‐3‐pyridin‐2‐yl‐[1,2,4]triazolo[3,4‐b][1,3,4]thiadiazole], the “inhibition of growth of Salmonella tolC, fra‐dependent” value (“inhibition” for short) in the data set on Salmonella tolC mutant was “initially shown to inhibit the growth of Salmonella tolC in a fra‐dependent manner”. Also, the IC50 in data set [1] (setting [2]) is 42 ± 2.6 µM; in data set [1] (setting [3]), 44.5 µM and 44.4 µM; in data set [1] (setting [4]) it was 39.3 µM. The “binding to FraB by native MS (species observed)” value (shortened to “binding to FraB by native MS”) at FraB (3 μM FraB, 120 μM inhibitor) is “distinct peaks corresponding to E2I and E2I2”. For the same compound, the “type of FraB–inhibitor interaction (covalent vs noncovalent)” value at FraB was “noncovalent”.
As for `Fc1ccc(-c2nn3c(-c4ccccn4)nnc3s2)cc1` [3469:N17, 6‐(4‐fluorophenyl)‐3‐pyridin‐2‐yl‐[1,2,4]triazolo[3,4‐b][1,3,4]thiadiazole], the “inhibition” value in the data set on Salmonella tolC mutant is on record as “initially shown to inhibit the growth of Salmonella tolC in a fra‐dependent manner”. The IC50 worked out at 113 µM in data set [1] (IC50 (curve fit of IC50 plots, Fig. S10), Trial 1, 0.25 mM 6-P-F-Asp, unit in Fig. S10); 86.7 µM in data set [1] (IC50 (curve fit of IC50 plots, Fig. S10), Trial 2, 0.25 mM 6-P-F-Asp, unit in Fig. S10); 100 ± 13 µM in data set [1] (IC50, 0.25 mM 6‐P‐F‐Asp, mean and standard error from two measurements). The “binding to FraB in the presence of substrate (native MS)” value at FraB (3 μM FraB, 120 μM inhibitor, 600 μM 6‐P‐F‐Asp) is “can bind either free enzyme or the enzyme‐substrate complex”. In addition, the “binding to FraB by native MS” value on FraB (3 μM FraB, 120 μM inhibitor) is “distinct peaks corresponding to E2I and E2I2”. For the same compound, the “type of FraB–inhibitor interaction (covalent vs noncovalent)” value on FraB is “noncovalent”.
On to `CC(C)Cc1cc(-c2nn3c(-c4ccccc4Cl)nnc3s2)n[nH]1` [3470:A09, 3‐(2‐chlorophenyl)‐6‐[5‐(2‐methylpropyl)‐1H‐pyrazol‐3‐yl]‐[1,2,4]triazolo[3,4‐b][1,3,4]thiadiazole], for which the “inhibition” value in the data set on Salmonella tolC mutant is recorded as “initially shown to inhibit the growth of Salmonella tolC in a fra‐dependent manner”. Besides, the IC50 in data set [1] (setting [2]) was found to be 15.4 ± 0.4 µM; in data set [1] (setting [3]) it was 15.8 µM; in data set [1] (setting [4]), 15 µM. At FraB (3 μM FraB, 120 μM inhibitor), the “binding to FraB by native MS” value was “distinct peaks corresponding to E2I and E2I2”. Further, the “type of FraB–inhibitor interaction (covalent vs noncovalent)” value at FraB is recorded as “noncovalent”.
